# Results reported in publication PMC10989010, “A panel of janus kinase inhibitors identified with anti-inflammatory effects protect mice from lethal influenza virus infection” (Antimicrobial Agents and Chemotherapy, 2024).
# Counter-ions that a name gives are not always drawn. Like-named read-outs stand apart in the source and are kept apart here.
# Assays:
# IP-10 = assay: cells; format: cell-based, human; conditions: read-out: IC50 IP-10
# [1] = Cytotoxicity assay (CellTiter-Glo); format: cell-based, human; conditions: human
# Experimental: (§1) The compound cytotoxicity was determined by CellTiter-Glo Assay (Promega, Madison, WI, USA). After adding 15 µL of CellTiter-Glo reagent to each well, plates were incubated at room temperature for 15 minutes with shaking. The luminescence intensity was determined by a multimode plate reader (Wallac Envision, PerkinElmer, MA, USA).
# IL-8 = assay: U937 cell-based anti-inflammatory assay for influenza virus infection, IL-8 production (AlphaLISA); parameters: species or system human; conditions: read-out: IC50 IL-8
# Experimental: U937 cells were seeded in a 96-well culture plate at a density of 1.5 × 10^5 cells per well and incubated for 24 hours prior to virus infection. Subsequently, the cells in each well were infected with the PR8 virus at a multiplicity of infection of 0.05 and treated with serially diluted drugs or left untreated as a control. The drugs were serially diluted threefold, starting from an initial concentration of 200 µM down to 0.01 µM. […] Following this incubation, the supernatants were collected and subjected to AlphaLISA analysis to determine IL-8, IP-10, and MCP1 protein levels.
# The AlphaLISA detection kits employed in this study were IL-8 (PerkinElmer AL224), IP-10 (PerkinElmer AL259), and MCP1 (PerkinElmer, AL244). U937 cell culture supernatants were measured for IL-8, IP-10, and MCP-1 protein levels using AlphaLISA assay as per the manufacturer’s recommendations. The ELISA and AlphaLISA plates were read using the Varioskan LUX multimode microplate reader (Thermo Scientiﬁc, Waltham, MA, USA).
# MCP1 = assay: cells; format: cell-based, human; conditions: read-out: IC50 MCP1
# U937 cells = assay: Cytotoxicity assay (CellTiter-Glo); format: cell-based, human; conditions: U937 cells; CellTiter-Glo; mean of three independent experiments
# Experimental: as §1
# [2] = U937 cells, CellTiter-Glo, mean of three independent experiments, read-out: CC50
structure (smiles),measurement,setting,value
N#CC[C@@H](C1CCCC1)n1cc(-c2ncnc3[nH]ccc23)cn1 [S-Ruxolitinib],IC50,"IP-10; Homo sapiens, U-937, 72 h",0.08 µM
same,CC50,[1]; [2],100 µM
same,IC50,"IL-8; Homo sapiens, U-937, 72 h",0.03 µM
same,IC50,"MCP1; Homo sapiens, U-937, 72 h",0.06 µM
Cc1cc(Nc2cc(CN3CCOCC3)c3nc(C)c(Cc4ccc(Cl)cc4F)n3n2)n[nH]1 [Gandotinib],IC50,"IP-10; Homo sapiens, U-937, 72 h",0.01 µM
same,CC50,U937 cells,26 µM
same,IC50,"IL-8; Homo sapiens, U-937, 72 h",< 0.005 µM
same,IC50,"MCP1; Homo sapiens, U-937, 72 h",< 0.005 µM
CCS(=O)(=O)N1CC(CC#N)(n2cc(-c3ncnc4[nH]ccc34)cn2)C1 [Baricitinib],CC50,U937 cells,> 100 µM
N#CCNC(=O)c1ccc(-c2ccnc(Nc3ccc(N4CCOCC4)cc3)n2)cc1 [Momelotinib],IC50,"IP-10; Homo sapiens, U-937, 72 h",0.48 µM
same,CC50,U937 cells,5.4 µM
same,IC50,"IL-8; Homo sapiens, U-937, 72 h",0.3 µM
same,IC50,"MCP1; Homo sapiens, U-937, 72 h",0.03 µM
CN1CCN(c2cccc(Nc3nc4c(-c5ccc(S(C)(=O)=O)cc5)cccn4n3)c2)CC1 [CEP-33779],IC50,IP-10,0.22 µM
same,CC50,U937 cells,10.5 µM
same,IC50,"IL-8; U937 cells infected with PR8 virus, 72 hours, Alphalisa, mean of three independent experiments",0.36 µM
same,IC50,MCP1,0.24 µM
O=C(Nc1ccc(-c2ccnc(Nc3ccc(N4CCOCC4)cc3)n2)cc1)C1CCCN1 (stereo not drawn) [XL019],IC50,"IP-10; Homo sapiens, U-937, 72 h",0.99 µM
same,CC50,U937 cells,26.7 µM
same,IC50,"IL-8; Homo sapiens, U-937, 72 h",0.51 µM
same,IC50,"MCP1; Homo sapiens, U-937, 72 h",0.94 µM
C[C@@H]1CCN(C(=O)CC#N)C[C@@H]1N(C)c1ncnc2[nH]ccc12 [Tofacitinib],CC50,U937 cells,> 100 µM
Cc1cc(Nc2nc(N[C@@H](C)c3ccc(F)cc3)c(C#N)cc2F)n[nH]1 [AZ 960],IC50,"IP-10; Homo sapiens, U-937, 72 h",0.01 µM
same,CC50,U937 cells,6 µM
same,IC50,"IL-8; Homo sapiens, U-937, 72 h",< 0.005 µM
same,IC50,"MCP1; Homo sapiens, U-937, 72 h",< 0.005 µM
CCS(=O)(=O)N1CCN(c2ccc(Nc3ncc(C(N)=O)c(NC4CC4)n3)cc2)CC1 [Cerdulatinib hydrochloride],IC50,"IP-10; Homo sapiens, U-937, 72 h",0.05 µM
same,CC50,U937 cells,3.5 µM
same,IC50,"IL-8; Homo sapiens, U-937, 72 h",< 0.005 µM
same,IC50,"MCP1; Homo sapiens, U-937, 72 h",0.02 µM
NC(=O)c1cnc2[nH]ccc2c1N[C@@H]1[C@@H]2CC3C[C@H]1C[C@@](O)(C3)C2 [Peficitinib],IC50,"IP-10; Homo sapiens, U-937, 72 h",0.02 µM
same,CC50,[1],34.7 µM
same,IC50,"IL-8; Homo sapiens, U-937, 72 h",0.01 µM
C[C@@H]1CCN(C(=O)CC#N)C[C@@H]1N(C)c1ncnc2[nH]ccc12 [Tofacitinib citrate],CC50,[1]; [2],> 100 µM
Cc1cc(Nc2nc(N[C@@H](C)c3ncc(F)cn3)ncc2Cl)n[nH]1 [AZD1480],IC50,"IP-10; Homo sapiens, U-937, 72 h",1 µM
same,CC50,[1]; [2],13.5 µM
same,IC50,"IL-8; Homo sapiens, U-937, 72 h",1.1 µM
same,IC50,"MCP1; Homo sapiens, U-937, 72 h",0.3 µM
N#CC[C@H](C1CCCC1)n1cc(-c2ncnc3[nH]ccc23)cn1 [Ruxolitinib],IC50,"IP-10; Homo sapiens, U-937, 72 h",0.07 µM
same,CC50,U937 cells,100 µM
same,IC50,"IL-8; Homo sapiens, U-937, 72 h",0.12 µM
same,IC50,"MCP1; Homo sapiens, U-937, 72 h",0.03 µM
CC[C@@](C)(Nc1ccnc(-c2c[nH]c3ncccc23)n1)C(=O)NCC(F)(F)F [Decernotinib],IC50,"IP-10; Homo sapiens, U-937, 72 h",0.1 µM
same,CC50,U937 cells,50 µM
same,IC50,"MCP1; Homo sapiens, U-937, 72 h",0.05 µM
